Literature values in patent US20230172904A1, “COMBINATION OF AN ANTIALLERGIC AGENT WITH MUSCARINIC ANTAGONIST AND/OR DOPAMINERGIC AGONIST FOR USE IN PREVENTING/STOPPING OF AXIAL MYOPIA IN HUMAN” (priority 2016, published 2023).

Tests used:
[1] = system: axial myopia; conditions: one drop of 1% Atropine collyrium at bedtime, chinese children, placebo controlled
[2] = system: axial myopia

CN1[C@@H]2CC[C@H]1C[C@@H](OC(=O)C(CO)c1ccccc1)C2 (stereo partly drawn) [Atropine]
subjects in whom the development of axial myopia was halted (stopping the elongation of the bulb) [1]: 90% | effect on myopia at reduced doses ([2]; dose reduced to 0.1%, 0.05% and 0.01%, children): dose dependent effect of atropine that is still acceptable at the lower concentration | subjects who developed ocular redness and itching ([2]; pediatric population, allergic response of the conjunctiva): around 5%
